Experiments:
Assay type in all cases: biochemical
[1] = target: T1, SGK kinase (Homo sapiens, UniProt O00141); experiment: IC50 for SGK kinase (selectivity); settings: for IC50: read-out: IC50-SGK1
T1 sequence (O00141 1-431): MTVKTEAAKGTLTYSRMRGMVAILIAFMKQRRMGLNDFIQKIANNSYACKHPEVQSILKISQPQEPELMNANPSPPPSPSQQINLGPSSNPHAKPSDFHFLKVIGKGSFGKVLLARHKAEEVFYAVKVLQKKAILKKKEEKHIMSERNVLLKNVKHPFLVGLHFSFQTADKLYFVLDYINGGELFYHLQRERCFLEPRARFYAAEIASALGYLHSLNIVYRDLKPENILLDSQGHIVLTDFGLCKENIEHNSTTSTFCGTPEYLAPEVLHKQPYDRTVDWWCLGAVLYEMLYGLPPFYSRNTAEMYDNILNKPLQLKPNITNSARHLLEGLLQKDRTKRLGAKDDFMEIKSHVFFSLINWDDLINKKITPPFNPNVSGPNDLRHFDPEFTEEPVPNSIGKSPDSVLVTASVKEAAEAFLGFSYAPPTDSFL
Procedure: Entries identified with “1” had values above 250 nM; entries identified with “2” had values above 1 μM; entries identified with “3” had values above 10 μM.

[2] = target: T2, PKC alpha (Homo sapiens, UniProt P17252); experiment: Ki Pan Vera (PV) potency for PKC alpha; settings: Ki Pan Vera (PV) of PKC alpha
T2 construct: purchased Pan Vera
Procedure: [The source words this procedure for another target and reports this target under the same test.] (§1) For Ki Pan Vera (PV) of PKCθ, entries identified with “A” had values below 100 nM; entries identified with “B” had values below 1 μM; and entries identified with “C” had values below 10 μM.

[3] = target: T3, PKCθ (Homo sapiens, UniProt Q04759); experiment: Ki Pan Vera (PV) potency for PKCθ; settings: Ki Pan Vera (PV) of PKCθ
T3 construct: purchased Pan Vera
Procedure: as §1

[4] = target: T4, PKC delta (Homo sapiens, UniProt Q05655); experiment: Ki Pan Vera (PV) potency for PKC delta; settings: Ki Pan Vera (PV) of PKC delta
T4 construct: purchased Pan Vera
Procedure: [The source words this procedure for another target and reports this target under the same test.] as §1

T4 sequence (Q05655 whole entry): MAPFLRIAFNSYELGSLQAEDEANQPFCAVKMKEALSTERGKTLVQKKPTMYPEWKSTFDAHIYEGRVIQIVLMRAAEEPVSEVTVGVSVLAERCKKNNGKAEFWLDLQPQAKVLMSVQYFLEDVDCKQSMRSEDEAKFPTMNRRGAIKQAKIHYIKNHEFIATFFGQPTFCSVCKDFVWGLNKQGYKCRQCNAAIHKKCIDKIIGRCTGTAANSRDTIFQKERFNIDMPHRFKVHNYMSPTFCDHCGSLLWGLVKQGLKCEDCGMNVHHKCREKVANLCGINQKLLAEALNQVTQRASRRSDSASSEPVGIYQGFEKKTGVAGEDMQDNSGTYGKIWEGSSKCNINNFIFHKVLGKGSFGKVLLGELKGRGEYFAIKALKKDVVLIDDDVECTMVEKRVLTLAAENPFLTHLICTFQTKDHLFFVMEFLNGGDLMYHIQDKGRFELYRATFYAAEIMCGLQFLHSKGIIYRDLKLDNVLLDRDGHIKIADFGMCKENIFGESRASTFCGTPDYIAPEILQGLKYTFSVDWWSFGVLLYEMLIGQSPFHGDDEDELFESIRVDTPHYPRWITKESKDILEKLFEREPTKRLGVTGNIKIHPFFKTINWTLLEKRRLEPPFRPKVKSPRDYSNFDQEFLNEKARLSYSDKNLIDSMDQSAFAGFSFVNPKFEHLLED
T3 sequence (Q04759 whole entry): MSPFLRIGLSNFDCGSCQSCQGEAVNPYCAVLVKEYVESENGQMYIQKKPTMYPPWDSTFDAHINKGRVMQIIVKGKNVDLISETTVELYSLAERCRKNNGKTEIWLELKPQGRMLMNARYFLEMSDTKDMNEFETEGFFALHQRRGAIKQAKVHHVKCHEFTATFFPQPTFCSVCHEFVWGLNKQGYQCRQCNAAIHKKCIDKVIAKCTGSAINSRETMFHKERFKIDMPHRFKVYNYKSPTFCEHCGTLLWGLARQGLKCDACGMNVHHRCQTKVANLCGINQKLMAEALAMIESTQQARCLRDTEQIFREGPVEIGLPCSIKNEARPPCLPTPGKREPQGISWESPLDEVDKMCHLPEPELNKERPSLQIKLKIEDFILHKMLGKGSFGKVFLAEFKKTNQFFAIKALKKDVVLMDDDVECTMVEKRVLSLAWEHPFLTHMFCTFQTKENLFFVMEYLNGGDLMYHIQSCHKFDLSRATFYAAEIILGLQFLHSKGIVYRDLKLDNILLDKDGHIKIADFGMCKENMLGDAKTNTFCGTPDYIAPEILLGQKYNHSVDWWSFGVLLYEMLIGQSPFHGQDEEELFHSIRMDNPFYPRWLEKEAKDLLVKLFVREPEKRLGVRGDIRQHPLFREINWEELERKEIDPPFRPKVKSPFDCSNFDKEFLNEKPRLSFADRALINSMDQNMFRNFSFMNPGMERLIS

Row | Compound | IC50 [1] [nM] | Ki [2] [nM] | Ki [3] [nM] | Ki [4] [nM] | IC50-SGK1 [1]
1 | Fc1ccc(F)c(CNc2ncc3nc(-c4c(F)cccc4Cl)n(C[C@@H]4CCCNC4)c3n2)c1 [Compound 124] | > 10000 | > 1000 | < 1000 | > 1000 | –
2 | Fc1ccc(CNc2cc3c(cn2)nc(-c2c(F)cccc2Cl)n3C[C@@H]2CCNC2)cc1Cl [Compound 155] | – | > 1000 | < 1000 | > 1000 | Inactive
3 | Fc1ccc(Cl)cc1CNc1ncc2c(n1)C(C[C@H]1CCNC1)C(c1c(Cl)cccc1Cl)=N2 (stereo partly drawn) [Compound 131] | – | > 1000 | < 1000 | > 1000 | Inactive
4 | Fc1ccccc1CNc1ncc2nc(-c3c(Cl)cccc3Cl)n(C3CCNCC3)c2n1 [Compound 221] | – | – | – | – | Inactive
5 | Fc1ccccc1CNc1ncc2nc(-c3c(F)cccc3Cl)n(C[C@H]3CCNC3)c2n1 [Compound 211] | > 1000 | > 1000 | < 1000 | > 1000 | –
6 | NCC1CCC(n2c(-c3cccc(F)c3F)nc3cnc(NCc4ccccc4F)nc32)CC1 (stereo not drawn) [Compound 222] | – | – | – | – | Inactive
7 | Fc1ccc(F)c(CNc2ncc3nc(-c4ccccc4Cl)n(C[C@@H]4CCCNC4)c3n2)c1 [Compound 167] | – | > 10000 | < 1000 | > 1000 | Inactive
8 | Fc1ccc(CNc2ncc3nc(-c4c(Cl)cccc4Cl)n(C[C@@H]4CCCNC4)c3n2)cc1 [Compound 105] | – | > 1000 | < 100 | > 250 | Inactive
9 | Fc1ccccc1CNc1ncc2nc(-c3c(Cl)cccc3Cl)n(CC3CCNC3)c2n1 (stereo not drawn) [Compound 150] | – | > 1000 | < 1000 | > 1000 | Inactive
10 | Fc1ccccc1CNc1ncc2nc(-c3ccccc3Cl)n(CCC3CCNCC3)c2n1 [Compound 240] | – | > 10000 | < 1000 | > 1000 | Inactive
11 | Clc1ccc(CNc2cc3c(cn2)nc(-c2c(Cl)cccc2Cl)n3CCC2CCNCC2)cc1Cl [Compound 154] | > 1000 | > 1000 | < 10000 | > 1000 | –
12 | Fc1cccc(Cl)c1-c1nc2cnc(NCc3cccc(Cl)c3)nc2n1C[C@H]1CCNC1 [Compound 216] | – | > 1000 | < 1000 | > 1000 | Inactive
13 | Fc1ccc(CNc2ncc3nc(-c4c(Cl)cccc4Cl)n(CC4CCNC4)c3n2)cc1 (stereo not drawn) [Compound 158] | > 10000 | > 1000 | < 1000 | > 1000 | –
14 | Fc1ccccc1CNc1ncc2nc(-c3c(F)cccc3Cl)n(C[C@H]3CCCNC3)c2n1 [Compound 162] | – | > 1000 | < 1000 | > 10000 | Inactive
15 | C[C@H](Nc1ncc2nc(-c3c(Cl)cccc3Cl)n(C[C@@H]3CCCNC3)c2n1)c1ccccc1F [Compound 116] | – | > 10000 | < 1000 | > 1000 | Inactive
16 | Fc1ccc(Cl)cc1CNc1ncc2nc(-c3c(Cl)cccc3Cl)n(C[C@@H]3CCCNC3)c2n1 [Compound 106] | – | > 10000 | < 1000 | > 1000 | Inactive
17 | Fc1ccccc1CNc1ncc2c(n1)C(C[C@H]1CCCNC1)C(c1c(Cl)cccc1Cl)=N2 (stereo partly drawn) [Compound 129] | – | > 1000 | < 1000 | > 1000 | Inactive
18 | Fc1cccc(CNc2ncc3nc(-c4c(Cl)cccc4Cl)n(C[C@@H]4CCCNC4)c3n2)c1 [Compound 103] | – | > 1000 | < 100 | > 250 | –
19 | Fc1cc(Cl)ccc1CNc1ncc2nc(-c3c(Cl)cccc3Cl)n(C[C@@H]3CCCNC3)c2n1 [Compound 213] | – | > 10000 | < 10000 | > 10000 | Inactive
20 | Fc1cccc(CNc2ncc3nc(-c4c(Cl)cccc4Cl)n(CCC4CCNCC4)c3n2)c1 [Compound 126] | > 1000 | > 1000 | < 1000 | > 1000 | –
21 | Fc1ccc(CNc2ncc3nc(-c4ccccc4Cl)n(C[C@@H]4CCCNC4)c3n2)cc1 [Compound 171] | – | > 1000 | < 1000 | > 1000 | Inactive
22 | Fc1ccc(CNc2ncc3nc(-c4c(Cl)cccc4Cl)n(C[C@@H]4CCCNC4)c3n2)c(F)c1 [Compound 109] | – | > 1000 | < 100 | > 1000 | Inactive
23 | Clc1cccc(Cl)c1-c1nc2cnc(NCc3ccccn3)nc2n1CC1CCNC1 (stereo not drawn) [Compound 262] | – | > 1000 | < 1000 | > 1000 | –
24 | Clc1ccc(CNc2ncc3nc(-c4c(Cl)cccc4Cl)n(C[C@@H]4CCCNC4)c3n2)cc1Cl [Compound 107] | – | > 10000 | < 1000 | > 1000 | –

Row | Compound | IC50 [1] [nM] | Ki [2] [nM] | Ki [3] [nM] | Ki [4] [nM] | IC50-SGK1 [1]
25 | Fc1ccccc1CNc1ncc2nc(-c3cccc(F)c3F)n(CCC3CCNCC3)c2n1 [Compound 238] | – | > 1000 | < 1000 | > 1000 | –
26 | Fc1ccc(CNc2ncc3nc(-c4c(Cl)cccc4Cl)n(C[C@H]4CCNC4)c3n2)c(F)c1 [Compound 140] | – | > 1000 | < 1000 | > 1000 | –
27 | Fc1ccc(CNc2ncc3nc(-c4c(F)cccc4Cl)n(CC4CCNC4)c3n2)cc1Cl (stereo not drawn) [Compound 204] | – | > 10000 | < 1000 | > 1000 | –
28 | Fc1ccccc1CNc1ncc2nc(-c3c(Cl)cccc3Cl)n(C[C@@H]3CCCNC3)c2n1 [Compound 111] | – | > 1000 | – | – | Inactive
29 | NC[C@H]1CC[C@H](n2c(-c3ccccc3Cl)nc3cnc(NCc4ccccc4F)nc32)CC1 [Compound 175] | – | – | < 1000 | > 1000 | Inactive
30 | Fc1cccc(Cl)c1-c1nc2cnc(NCc3cccs3)nc2n1C[C@@H]1CCCNC1 [Compound 169] | – | > 10000 | < 1000 | > 1000 | –
31 | Clc1cccc(CNc2ncc3nc(-c4c(Cl)cccc4Cl)n(CC4CCNC4)c3n2)c1 (stereo not drawn) [Compound 157] | – | > 1000 | < 1000 | > 1000 | –
32 | Fc1cccc(CNc2ncc3nc(-c4ccccc4Cl)n(C[C@@H]4CCCNC4)c3n2)c1 [Compound 152] | – | > 1000 | < 1000 | > 1000 | –
33 | Fc1ccc(CNc2ncc3nc(-c4c(Cl)cccc4Cl)n(CC4CCNC4)c3n2)cc1Cl (stereo not drawn) [Compound 139] | – | > 1000 | < 1000 | > 1000 | –
34 | Fc1cccc(CNc2ncc3nc(-c4c(F)cccc4Cl)n(C[C@@H]4CCCNC4)c3n2)c1 [Compound 123] | – | > 1000 | < 1000 | > 1000 | –
35 | C[C@H](Nc1ncc2nc(-c3c(F)cccc3Cl)n(C[C@H]3CCNC3)c2n1)c1ccccc1F [Compound 226] | – | > 1000 | < 1000 | > 1000 | –
36 | Clc1cccc(Cl)c1C1=Nc2cnc(NCc3ccsc3)nc2C1C[C@@H]1CCCNC1 (stereo partly drawn) [Compound 114] | – | – | – | – | Inactive
37 | NC[C@H]1CC[C@H](n2c(-c3c(Cl)cccc3Cl)nc3cnc(NCc4ccccc4F)nc32)CC1 [Compound 149] | > 10000 | – | < 1000 | > 1000 | –
38 | Fc1ccccc1CNc1ncc2nc(-c3c(Cl)cccc3Cl)n(C[C@@H]3CCNC3)c2n1 [Compound 220] | – | > 1000 | < 1000 | > 1000 | –
39 | Fc1ccc(Cl)cc1CNc1ncc2nc(-c3c(Cl)cccc3Cl)n(CC3CCNC3)c2n1 (stereo not drawn) [Compound 159] | – | > 1000 | < 1000 | > 1000 | –
40 | Cc1ccsc1CNc1ncc2nc(-c3c(Cl)cccc3Cl)n(C[C@@H]3CCCNC3)c2n1 [Compound 201] | – | – | – | – | Inactive
41 | Clc1cccc(Cl)c1C1=Nc2cnc(NCc3nccs3)nc2C1C[C@@H]1CCCNC1 (stereo partly drawn) [Compound 137] | – | – | – | – | Inactive
42 | Fc1ccc(CNc2ncc3c(n2)C(CC2CNCCO2)C(c2c(F)cccc2Cl)=N3)cc1F (stereo not drawn) [Compound 215] | – | – | – | – | Inactive
43 | Clc1cccc(Cl)c1-c1nc2cnc(NCc3cccs3)nc2n1CCC1CCNCC1 [Compound 203] | – | > 10000 | < 1000 | > 1000 | –
44 | Clc1cccc(Cl)c1-c1nc2cnc(NCc3cccs3)nc2n1C[C@@H]1CCCNC1 [Compound 119, (R)-8-(2,6-dichlorophenyl)-9-(piperidin-3-ylmethyl)-N-(thiophen-2-ylmethyl)-9H-purin-2-amine] | – | > 1000 | < 100 | > 1000 | –
45 | Fc1cccc(Cl)c1-c1nc2cnc(NCc3ccccc3)nc2n1C[C@@H]1CCCNC1 [Compound 145] | – | > 1000 | < 1000 | > 1000 | –
46 | Fc1cccc(Cl)c1-c1nc2cnc(NCc3ccc(Cl)c(Cl)c3)nc2n1C[C@@H]1CCCNC1 [Compound 132] | – | > 10000 | < 10000 | > 1000 | –
47 | Clc1ccc(CNc2ncc3nc(-c4ccccc4Cl)n(C[C@@H]4CCCNC4)c3n2)cc1Cl [Compound 165] | – | > 10000 | < 10000 | > 1000 | –

Reference: US20110046131A1, “PURINES AS PKC-THETA INHIBITORS” (N.V. Organon and Pharmacopeia, LLC, priority 2006, published 2011)
